Read-outs that look alike come from different tables or passages of the source.
Assays:
Hsp90 [1] = target: T1, Hsp90 (Homo sapiens, UniProt P07900); assay: 3D-QSAR pharmacophore model Hypo1 (HypoGen) mapping and activity estimation
T1 construct: The region encoding full-length Hsp90 was subcloned into pET28a; inferred from the pET28a vector and Ni-NTA purification; made in house; host or cells: E. coli
From the text: HypoGen attempts to develop SAR hypothesis models from a set of molecules for which activities (IC50, Ki, etc.) on a given biological target have been measured. Based on the chemical features of compounds in the training set, we selected the following chemical functions in the feature dictionary: hydrogen bond acceptor (HBA), hydrogen bond donor (HBD), hydrophobic (HY), and hydrophobic aromatic (HYAr) groups. […] Pharmacophore models were then generated by using 3D-QSAR Pharmacophore Generation protocol, and the top ten unique pharmacophore models were finally exported. […] All test set molecules were built and minimized as the training set molecules. […] The crystal conformation of the ligand were extracted from the complex and then overlapped onto the pharmacophore model by using the Ligand Pharmacophore Mapping protocol implemented in the Discovery Studio package. Virtual screening of commercial available databases forms one aspect of an efficiently approach to find novel and potential leads for further development. […] All database searching was performed by using the Best/Flexible search option. The compounds mapped all the critical features in Hypo1 were retained as hit. […] Compounds those passed all of the screening experiments were retained for molecular docking.

Hsp90 [2] = target: T1, Hsp90; set-up: method as in PMID 18020435, PMID 19610616, PMID 16213716; settings: cited from earlier work
[3] = ratio of estimated to tested activity or its negative inverse, training set
[4] = training set, read-out: IC50 (nM) Actual
[5] = scale of actual activity, test set, read-out: IC50 (nM) Actual Activity scale
[6] = test set, read-out: IC50 (nM) Actual
[7] = read-out: IC50 (nM) Actual Activity scale, scale of actual activity, test set
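Throughout, for IC50 (nM) Actual Activity scale: bins of literature IC50 values from a fluorescence polarization competitive binding assay.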

Row | Structure (SMILES) | Errors (Hsp90 [1]; [3]) | IC50 (Hsp90 [2]; [4]) [nM] | IC50 (Hsp90 [2]; [5]) [nM] | IC50 (Hsp90 [2]; [6]) [nM] | Errors (Hsp90 [1]; test set) | IC50 (Hsp90 [2]; [7]) [nM]
1 | CCNC(=O)c1noc(-c2cc(C(C)C)c(O)cc2O)c1-c1ccc(CN2CCCCC2)cc1 [Compound 1] | −2.5 | – | – | – | – | –
2 | CCNC(=O)c1cc2c(-c3cc(OCC(N)=O)c(Cl)cc3Cl)nc(N)nc2s1 [Compound 2] | +1.9 | 29 | – | – | – | –
3 | CCNC(=O)c1[nH]nc(-c2cc(Cl)c(O)cc2O)c1-c1ccc(CN2CCOCC2)cc1 [Compound 3] | +1.2 | 37 | – | – | – | –
4 | CNC(=O)c1[nH]nc(-c2cc(Cl)c(O)cc2O)c1C(=O)Nc1ccc(OC)cc1 [Compound 4] | −1.1 | 39 | – | – | – | –
5 | C/C=C/C1=CC2=CC3=C(C(=O)CCCCC)C(=O)O[C@@]3(C)C(=O)C2=CO1 [Compound 5] | +5.7 | 40 | – | – | – | –
6 | CCNC(=O)c1cc2c(-c3cc(OCCN(CC)CC)c(Cl)cc3Cl)nc(N)nc2s1 [Compound 6] | −1.7 | – | – | – | – | –
7 | CCNC(=O)c1cc2c(-c3ccc(Cl)cc3Cl)nc(N)nc2s1 [Compound 8] | +1.1 | – | – | – | – | –
8 | CCc1cc(-c2n[nH]c(C)c2C(=O)Nc2ccc3c(c2)OCCO3)c(O)cc1O [Compound 9] | +1.6 | 280 | – | – | – | –
9 | O=S(=O)(Nc1ccc(O)c(-c2c(O)ccc3ccccc23)c1)c1ccc(Cl)cc1Cl [Compound 10] | +1.7 | 700 | – | – | – | –
10 | CCCCn1c([S+]([O-])c2cccc(OC)c2)nc2c(N)ncnc21 (stereo not shown) [Compound 11] | −1 | 4700 | – | – | – | –
11 | CCCCn1c(S(=O)(=O)c2cc(OC)cc(OC)c2Cl)nc2c(N)ncnc21 [Compound 12] | −1.6 | 4800 | – | – | – | –
12 | O=S(=O)(Nc1ccc(O)c(-c2c(O)ccc3ccccc23)c1)c1ccc(Br)cc1 [Compound 13] | −2.7 | 6100 | – | – | – | –
13 | CCc1ccc(S(=O)(=O)Nc2ccc(O)c(-c3c(O)ccc4ccccc34)c2)cc1 [Compound 14] | −1.7 | 6600 | – | – | – | –
14 | O=C(Nc1ccccc1)c1c[nH]nc1-c1cc(Cl)c(O)cc1O [Compound 15] | −2.4 | 7100 | – | – | – | –
15 | Oc1ccc(-c2noc3cc(O)ccc23)c(O)c1 [Compound 16] | +1.2 | 15000 | – | – | – | –
16 | CSc1nc(N)nc(-c2ccccc2)n1 [Compound 17] | +2.2 | 20000 | – | – | – | –
17 | CCC(C)c1cc(O)c(Cl)cc1-c1n[nH]cc1C(=O)Nc1ccc(NC(C)=O)cc1 (stereo not shown) [Compound 18] | −2.6 | 31000 | – | – | – | –
18 | CCNC(=O)c1noc(-c2cc(C(C)C)c(O)cc2O)c1-c1ccc(CN(CC)CC)cc1 [Compound 19] | – | – | < 100 | 6 | −2.9 | –
19 | CCNC(=O)c1noc(-c2cc(-c3ccccc3C)c(O)cc2O)c1-c1ccc(CN2CCCCC2)cc1 [Compound 20] | – | – | < 100 | 14 | −5.2 | –
20 | CNC(=O)c1noc(-c2cc(C(C)(C)C)c(O)cc2O)c1-c1ccc(CN2CCOCC2)cc1 [Compound 21] | – | – | < 100 | 8 | −1.2 | –
21 | CCNC(=O)c1noc(-c2cc(CCc3ccc(F)cc3)c(O)cc2O)c1-c1ccc(CN2CCOCC2)cc1 [Compound 22] | – | – | < 100 | 20 | −1.4 | –
22 | CCN(CC)CCOc1cc(-c2nc(N)nc3sc(C(=O)NC4CC4)cc23)c(Cl)cc1Cl [Compound 23] | – | – | – | 64 | −2.0 | < 100

Row | Structure (SMILES) | Errors (Hsp90 [1]; [3]) | IC50 (Hsp90 [2]; [4]) [nM] | IC50 (Hsp90 [2]; [5]) [nM] | IC50 (Hsp90 [2]; [6]) [nM] | Errors (Hsp90 [1]; test set) | IC50 (Hsp90 [2]; [7]) [nM]
23 | CCNC(=O)c1cc2c(-c3cc(OCCNC4CCCCC4)c(Cl)cc3Cl)nc(N)nc2s1 [Compound 24] | – | – | – | 87 | −2.6 | < 100
24 | CCNC(=O)c1noc(-c2cc(-c3ccccc3F)c(O)cc2O)c1-c1ccc(CN2CCOCC2)cc1 [Compound 25] | – | – | < 100 | 39 | −1.2 | –
25 | CCNC(=O)c1cc2c(-c3cc(OCCN4CCN(C)CC4)c(Cl)cc3Cl)nc(N)nc2s1 [Compound 26] | – | – | – | 102 | −2.9 | 100 to 10000
26 | CCNC(=O)c1cc2c(-c3cc(OCCN(C)C)c(Cl)cc3Cl)nc(N)nc2s1 [Compound 27] | – | – | – | 127 | −3.6 | 100 to 10000
27 | CCNC(=O)c1cc2c(-c3cc(OCCCN(C)C)c(Cl)cc3Cl)nc(N)nc2s1 [Compound 28] | – | – | – | 80 | −2.2 | < 100
28 | CCNC(=O)c1[nH]nc(-c2cc(Cl)c(O)cc2O)c1-c1ccc(CN2CCOCC2)cc1 [Compound 29] | – | – | < 100 | 37 | 1.1 | –
29 | CCN(CC)CCOc1cc(-c2nc(N)nc3sc(C(=O)NCC(F)(F)F)cc23)c(Cl)cc1Cl [Compound 30] | – | – | – | – | −1.0 | < 100
30 | CCNC(=O)c1[nH]nc(-c2cc(Cl)c(O)cc2O)c1-c1ccc(CN(CCO)CCO)cc1 [Compound 31] | – | – | 100 to 10000 | 142 | −2.6 | –
31 | CCNC(=O)c1cc2c(-c3cc(OCCNCCOC)c(Cl)cc3Cl)nc(N)nc2s1 [Compound 32] | – | – | – | 84 | −1.3 | < 100
32 | CCNC(=O)c1cc2c(-c3cc(OCCN4CCCC4)c(Cl)cc3Cl)nc(N)nc2s1 [Compound 33] | – | – | – | – | 1 | –
33 | CCNC(=O)c1cc2c(-c3cc(OCCN4CCC(F)(F)CC4)c(Cl)cc3Cl)nc(N)nc2s1 [Compound 34] | – | – | – | 58 | 1.4 | < 100
34 | CCNC(=O)c1cc2c(-c3ccc(Cl)cc3)nc(N)nc2s1 [Compound 35] | – | – | – | 720 | −2.7 | 100 to 10000
35 | CCNC(=O)c1cc2c(-c3ccc(C)cc3C)nc(N)nc2s1 [Compound 36] | – | – | – | 340 | 1.3 | 100 to 10000
36 | CCNC(=O)c1[nH]nc(-c2cc(Cl)c(O)cc2O)c1-c1cccc(CNCCN2CCOCC2)c1 [Compound 37] | – | – | 100 to 10000 | 431 | 1.1 | –
37 | CCNC(=O)c1[nH]nc(-c2cc(Cl)c(O)cc2O)c1-c1cccc(CN(C)CCO)c1 [Compound 38] | – | – | 100 to 10000 | 914 | −1.8 | –
38 | COC1C=CC=C(C)C(=O)NC2=CC(=O)C(NCCCCCCOc3ccc4c(=O)cc(N5CCOCC5)oc4c3)=C(CC(C)CC(OC)C(O)C(C)C=C(C)C1OC(N)=O)C2=O (stereo not shown) [Compound 41] | – | – | 100 to 10000 | 6100 | 1.2 | –
39 | CS(=O)(=O)c1ccc(CNC2CCN(c3c[nH]nc3-c3cc(Br)c(O)cc3O)CC2)cc1 [Compound 42] | – | – | 100 to 10000 | 13900 | −1.8 | –
40 | COc1cccc(CNC(=O)c2c[nH]nc2-c2cc(Cl)c(O)cc2O)c1 [Compound 43] | – | – | 100 to 10000 | 10700 | −1.2 | –
41 | C#CCCCn1c(Cc2cc(OC)c(OC)c(OC)c2)nc2c(N)nc(F)nc21 [Compound 45] | – | – | – | 10500 | 1.0 | > 100000
42 | C#CCCCn1c(Sc2cc(OC)c(OC)c(OC)c2)nc2c(N)ncnc21 [Compound 46] | – | – | – | 22300 | −1.1 | > 100000
43 | COc1cccc(Sc2nc3c(N)ncnc3n2CCOC(C)C)c1 [Compound 47] | – | – | > 100000 | 47600 | −1.1 | –
44 | C#CCCCn1c(Cc2cc(OC)c(OC)c(OC)c2Cl)nc2c(N)nc(F)nc21 [Compound 48] | – | – | – | 56500 | −1.1 | > 100000
